# Reference: US9611276B2, “Imidazo bicyclic iminium compounds as antitumor agents” (THE BOARD OF TRUSTEES OF THE LELAND STANFORD JUNIOR …, priority 2012, dated 2017)
# pIC50: −log10 of the molar value.
# Key:
# Type in all cases: cell-based
# [1] = test system: endogenous Hh target gene expression (Gli1 mRNA); experiment: Gli1 mRNA levels in NIH-3T3 cells with ShhN
# Procedure: (§1) NIH-3T3 cells were obtained from ATCC and cultured in DMEM (Invitrogen, 11965) containing 10% (v/v) calf serum (ATCC, 30-2030), 1 mM sodium pyruvate (Invitrogen, 11360) and 1× PenStrep (Gibco, 15140).
# (§2) All test compounds were dissolved in DMSO at 50 mM, serially diluted by 1:3, 1:4 or 1:5 in a 96-well translucent microplate (Greiner bio-one, 650201) and stored at −20° C. These serial dilutions were added to assay media freshly with final DMSO concentration of 0.2% (v/v).
# Quantification of Gli1 mRNA levels in NIH-3T3 cells provides a measure of endogenous Hh target gene expression. NIH 3T3 cells were seeded into 96-well plates (36,000 cells/well), cultured to confluency for 24 hrs and then incubated with test compounds in DMEM (Invitrogen, 11965) containing 0.5% (v/v) calf serum (ATCC, 30-2030), 1 mM sodium pyruvate (Invitrogen, 11360), 1× PenStrep (Gibco, 15140) and 10% (v/v) ShhN-conditioned medium for 24 hrs. The cells were lysed and the lysate was used to prepare cDNA using a Cells-to-CT kit (Ambion) according to the manufacturer's protocols. The cDNA was then quantified with Gli1 and GAPDH Taqman probes (Mm00494645m1 and Mm99999914g1, Applied Biosystems) on a Roche Lightcycler 480, using the 2nd derivative/maximum method to obtain Ct values. Biological triplicates were analyzed for each test compounds.
# Gli1 = target: T1, Gli1 (Homo sapiens, UniProt P08151); experiment: Overexpression of Gli1 in NIH-3T3 cells, firefly luciferase reporter
# T1 construct: expressed in transfected cells; host or cells: NIH-3T3 (mouse fibroblasts)
# T1 sequence (P08151 1-1106): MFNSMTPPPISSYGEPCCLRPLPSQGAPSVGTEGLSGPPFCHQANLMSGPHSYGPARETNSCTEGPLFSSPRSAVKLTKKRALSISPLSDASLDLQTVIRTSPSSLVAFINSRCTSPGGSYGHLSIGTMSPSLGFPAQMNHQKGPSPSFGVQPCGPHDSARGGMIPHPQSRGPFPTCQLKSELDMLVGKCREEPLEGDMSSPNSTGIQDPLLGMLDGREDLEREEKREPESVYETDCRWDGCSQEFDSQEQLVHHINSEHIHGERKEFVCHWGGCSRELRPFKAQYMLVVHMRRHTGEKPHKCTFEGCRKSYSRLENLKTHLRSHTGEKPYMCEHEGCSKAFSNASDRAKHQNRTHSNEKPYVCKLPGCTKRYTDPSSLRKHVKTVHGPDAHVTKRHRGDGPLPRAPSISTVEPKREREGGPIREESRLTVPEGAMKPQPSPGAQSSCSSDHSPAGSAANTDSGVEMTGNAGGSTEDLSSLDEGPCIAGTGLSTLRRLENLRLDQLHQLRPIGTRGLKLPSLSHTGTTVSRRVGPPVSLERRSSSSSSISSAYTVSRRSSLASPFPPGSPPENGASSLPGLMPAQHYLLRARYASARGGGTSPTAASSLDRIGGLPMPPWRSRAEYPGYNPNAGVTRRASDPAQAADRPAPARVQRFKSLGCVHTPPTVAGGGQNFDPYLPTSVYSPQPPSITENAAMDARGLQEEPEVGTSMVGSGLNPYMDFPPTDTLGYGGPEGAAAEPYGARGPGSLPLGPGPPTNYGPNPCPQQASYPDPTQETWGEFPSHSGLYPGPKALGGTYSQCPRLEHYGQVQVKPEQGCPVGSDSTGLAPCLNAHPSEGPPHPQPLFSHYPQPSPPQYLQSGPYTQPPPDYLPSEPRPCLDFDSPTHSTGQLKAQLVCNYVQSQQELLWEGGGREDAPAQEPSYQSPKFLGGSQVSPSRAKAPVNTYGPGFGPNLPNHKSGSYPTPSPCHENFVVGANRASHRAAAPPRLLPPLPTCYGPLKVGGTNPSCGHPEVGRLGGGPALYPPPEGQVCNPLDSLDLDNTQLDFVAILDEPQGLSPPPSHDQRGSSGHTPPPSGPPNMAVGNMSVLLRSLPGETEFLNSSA
# Procedure: as §1, §2
# (§3) Overexpression of Gli1 or Gli2 in NIH-3T3 cells provides a measure of Gli1- or Gli1/Gli2-induced pathway activity, respectively. NIH 3T3 cells were seeded into a 24-well plate (35,000 cells/well) and cultured for 30 hrs. […] The cells were lysed with passive lysis buffer (200 μL/well), and 10 μL of the obtained lysate were analyzed for firefly and Renilla luciferase activities using Dual-Luciferase Reporter Assay System (Promega, E1960) (50 μL/well of each reagent) on a microplate luminometer (Veritas). Biological triplicates were analyzed for each test compounds.
# Gli2 = Gli2 (Homo sapiens, UniProt P10070); experiment: Overexpression of Gli2 in NIH-3T3 cells, firefly luciferase reporter; set-up: expressed in transfected cells; host or cells: NIH-3T3 (mouse fibroblasts)
# Chain of Gli2 (P10070 whole entry, species assumed): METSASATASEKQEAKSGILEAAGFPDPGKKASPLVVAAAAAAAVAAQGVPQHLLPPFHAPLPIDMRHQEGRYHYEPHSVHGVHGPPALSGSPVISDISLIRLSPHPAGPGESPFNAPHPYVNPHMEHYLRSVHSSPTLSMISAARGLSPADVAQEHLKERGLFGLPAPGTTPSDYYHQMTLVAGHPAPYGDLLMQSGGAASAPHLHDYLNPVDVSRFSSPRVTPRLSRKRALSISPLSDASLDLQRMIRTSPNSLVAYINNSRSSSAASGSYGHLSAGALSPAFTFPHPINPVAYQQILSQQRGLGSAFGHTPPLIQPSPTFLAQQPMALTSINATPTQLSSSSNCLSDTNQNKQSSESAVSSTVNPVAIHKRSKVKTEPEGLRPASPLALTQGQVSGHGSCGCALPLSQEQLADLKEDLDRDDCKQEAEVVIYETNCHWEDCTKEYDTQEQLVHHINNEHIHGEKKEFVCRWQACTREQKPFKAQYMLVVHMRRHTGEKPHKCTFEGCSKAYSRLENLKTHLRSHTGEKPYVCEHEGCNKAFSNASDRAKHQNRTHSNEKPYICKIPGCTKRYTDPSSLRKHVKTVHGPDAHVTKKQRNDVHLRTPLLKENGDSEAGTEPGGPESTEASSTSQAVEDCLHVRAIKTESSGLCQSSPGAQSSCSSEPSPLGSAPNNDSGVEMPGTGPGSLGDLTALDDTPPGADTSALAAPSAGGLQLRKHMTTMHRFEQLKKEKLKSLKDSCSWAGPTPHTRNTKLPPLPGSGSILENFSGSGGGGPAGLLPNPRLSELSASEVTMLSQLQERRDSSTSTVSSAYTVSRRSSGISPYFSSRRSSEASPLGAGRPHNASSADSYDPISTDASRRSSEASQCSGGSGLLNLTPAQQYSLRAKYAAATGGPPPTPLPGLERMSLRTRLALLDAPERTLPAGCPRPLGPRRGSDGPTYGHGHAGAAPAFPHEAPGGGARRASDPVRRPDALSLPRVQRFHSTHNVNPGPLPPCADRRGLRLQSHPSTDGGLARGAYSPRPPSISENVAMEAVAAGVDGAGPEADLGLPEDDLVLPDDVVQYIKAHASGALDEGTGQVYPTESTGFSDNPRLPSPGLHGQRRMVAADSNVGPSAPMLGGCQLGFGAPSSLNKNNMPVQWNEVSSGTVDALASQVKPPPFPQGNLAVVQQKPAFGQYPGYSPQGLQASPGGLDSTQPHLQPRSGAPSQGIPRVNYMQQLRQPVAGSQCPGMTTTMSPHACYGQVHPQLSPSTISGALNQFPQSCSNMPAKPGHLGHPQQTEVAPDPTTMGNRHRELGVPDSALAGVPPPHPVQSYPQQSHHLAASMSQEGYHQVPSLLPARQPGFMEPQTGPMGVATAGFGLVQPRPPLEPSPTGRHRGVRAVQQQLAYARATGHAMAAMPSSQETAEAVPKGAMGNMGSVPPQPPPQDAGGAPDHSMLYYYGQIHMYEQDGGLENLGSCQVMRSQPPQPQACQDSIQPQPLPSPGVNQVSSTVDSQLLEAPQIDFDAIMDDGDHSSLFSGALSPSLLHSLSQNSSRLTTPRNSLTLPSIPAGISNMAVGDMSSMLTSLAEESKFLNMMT
# Procedure: as §1, §2, §3
smiles,measurement,setting,value
CCOc1ccc(-[n+]2cc(-c3ccc(Br)cc3)n3c2CCCCC3)cc1 [Compound A-1],ShhN-dependent expression of endogenous target genes (Gli1),[1],inhibited
same,pIC50,"[1]; Mus musculus, NIH3T3, NIH-3T3 w/ ShhN",5.30
same,Exogenous Gli1 activity,Gli1,potently blocked
same,Hh reporter expression induced by exogenous Gli2,Gli2,only partially inhibited
